Measurements as given in US8686044B2, “Amide derivative, pest control agent containing the amide derivative, and use of the amide derivative” (Mitsui Chemicals Agro, Inc., priority 2008, dated 2014).

Assays:
Format in all cases: in vivo
Spodoptera litura = experiment: Pesticidal test against Spodoptera litura (cabbage leaf dip); settings: foliar, 144 h, 2-stage larvae, examined after 6 days, 25° C., read-out: pesticidal rate; for pest or weed control at 1 ppm: concentration 1 ppm; for pest or weed control at 10 ppm: concentration 10 ppm
Protocol: (§1) Pesticidal Test against Spodoptera litura A piece of a cabbage leaf was immersed for 30 seconds in a chemical solution in which a test compound had been prepared at a predetermined concentration, and air-dried, and then put into a 7 cm polyethylene cup having a filter paper laid on the bottom thereof, and 2-stage larvae of Spodoptera litura were released. They were left to stand in a thermostatic chamber at 25° C., and the numbers of the living pests and the dead pests were examined after 6 days. The test was carried out with five larvae per group in two replicates. Further, the following compound (A) disclosed in the pamphlet of International Publication WO 2005/073165 was used as a comparative compound.

Plutella xylostella = experiment: Pesticidal test against Plutella xylostella (cabbage leaf dip); settings: foliar, 144 h, 2-stage larvae, examined after 6 days, 25° C., read-out: pesticidal rate; for pest or weed control at 1 ppm: concentration 1 ppm; for pest or weed control at 10 ppm: concentration 10 ppm
Protocol: as §1, with “Plutella xylostella” for “Spodoptera litura”, “above” for “following”, “(A)” for “(A) disclosed in the pamphlet of International Publication WO 2005/073165”

Laodelphax striatellus = experiment: Pesticidal test against Laodelphax striatellus (rice seedling spray); settings: 144 h, concentration 100 ppm, 3-stage larvae, examined after 6 days, 25° C., read-out: pesticidal rate
Protocol: Pesticidal Test against Laodelphax striatellus
2.5 ml of an acetone solution in which a test compound had been prepared at a predetermined concentration was sprayed on rice seedlings, air-dried, and then put into a glass tube having a diameter of 3 cm and a height of 13 cm, having water therein, and 3-stage larvae of Laodelphax striatellus were released and the tube was capped. They were left to stand in a thermostatic chamber at 25° C., and the numbers of the living pests and the dead pests were examined after 6 days. The test was carried out with ten larvae per group in two replicates.

O=C(Nc1cccc(C(=O)Nc2c(Br)cc(C(F)(C(F)(F)F)C(F)(F)C(F)(F)F)cc2Br)c1F)c1ccc(F)cc1 (stereo not drawn) [6-1185]
≥ 70%: pest or weed control at 1 ppm (Spodoptera litura) | pest or weed control at 1 ppm (Plutella xylostella) | pest or weed control at 100 ppm (Laodelphax striatellus)

N#Cc1ccc(C(=O)Nc2cccc(C(=O)Nc3c(Br)cc(C(F)(C(F)(F)F)C(F)(F)C(F)(F)F)cc3Br)c2F)cc1 (stereo not drawn) [6-1203]
≥ 70%: pest or weed control at 1 ppm (Spodoptera litura) | pest or weed control at 1 ppm (Plutella xylostella) | pest or weed control at 100 ppm (Laodelphax striatellus)

O=C(Nc1cccc(C(=O)Nc2c(Br)cc(C(F)(C(F)(F)F)C(F)(F)C(F)(F)F)cc2Br)c1F)c1ccc(Cl)nc1 (stereo not drawn) [6-1225]
≥ 70%: pest or weed control at 1 ppm (Spodoptera litura) | pest or weed control at 1 ppm (Plutella xylostella) | pest or weed control at 100 ppm (Laodelphax striatellus)

O=C(Nc1cccc(C(=O)Nc2c(I)cc(C(F)(C(F)(F)F)C(F)(F)F)cc2I)c1F)c1ccccc1F [6-1261]
≥ 70%: pest or weed control at 1 ppm (Spodoptera litura) | pest or weed control at 1 ppm (Plutella xylostella) | pest or weed control at 100 ppm (Laodelphax striatellus)

O=C(Nc1c(I)cc(C(F)(C(F)(F)F)C(F)(F)F)cc1I)c1cccc(NC(=O)c2c(F)cccc2F)c1F [6-1282]
≥ 70%: pest or weed control at 1 ppm (Spodoptera litura) | pest or weed control at 1 ppm (Plutella xylostella) | pest or weed control at 100 ppm (Laodelphax striatellus)

O=C(Nc1cccc(C(=O)Nc2c(I)cc(C(F)(C(F)(F)F)C(F)(F)F)cc2I)c1F)c1ccc(Cl)nc1 [6-1303]
≥ 70%: pest or weed control at 1 ppm (Spodoptera litura) | pest or weed control at 1 ppm (Plutella xylostella) | pest or weed control at 100 ppm (Laodelphax striatellus)

O=C(Nc1cccc(C(=O)Nc2c(I)cc(C(F)(C(F)(F)F)C(F)(F)C(F)(F)F)cc2I)c1F)c1ccccc1F (stereo not drawn) [6-1339]
≥ 70%: pest or weed control at 1 ppm (Spodoptera litura) | pest or weed control at 1 ppm (Plutella xylostella) | pest or weed control at 100 ppm (Laodelphax striatellus)

O=C(Nc1cccc(C(=O)Nc2c(I)cc(C(F)(C(F)(F)F)C(F)(F)C(F)(F)F)cc2I)c1F)c1cccc(F)c1 (stereo not drawn) [6-1340]
≥ 70%: pest or weed control at 1 ppm (Spodoptera litura) | pest or weed control at 1 ppm (Plutella xylostella) | pest or weed control at 100 ppm (Laodelphax striatellus)

O=C(Nc1cccc(C(=O)Nc2c(I)cc(C(F)(C(F)(F)F)C(F)(F)C(F)(F)F)cc2I)c1F)c1ccc(Cl)nc1 (stereo not drawn) [6-1381]
≥ 70%: pest or weed control at 1 ppm (Spodoptera litura) | pest or weed control at 1 ppm (Plutella xylostella) | pest or weed control at 100 ppm (Laodelphax striatellus)

O=C(Nc1cccc(C(=O)Nc2c(Br)cc(C(F)(C(F)(F)F)C(F)(F)C(F)(F)F)cc2C(F)(F)F)c1F)c1ccccc1F (stereo not drawn) [6-1653]
≥ 70%: pest or weed control at 1 ppm (Spodoptera litura) | pest or weed control at 1 ppm (Plutella xylostella) | pest or weed control at 100 ppm (Laodelphax striatellus)

O=C(Nc1cccc(C(=O)Nc2c(I)cc(C(F)(C(F)(F)F)C(F)(F)F)cc2C(F)(F)F)c1F)c1ccc(Cl)cc1Cl [6-1754]
≥ 70%: pest or weed control at 1 ppm (Spodoptera litura) | pest or weed control at 1 ppm (Plutella xylostella) | pest or weed control at 100 ppm (Laodelphax striatellus)

O=C(Nc1cccc(C(=O)Nc2c(I)cc(C(F)(C(F)(F)F)C(F)(F)F)cc2C(F)(F)F)c1F)c1cccnc1Cl [6-1766]
≥ 70%: pest or weed control at 1 ppm (Spodoptera litura) | pest or weed control at 1 ppm (Plutella xylostella) | pest or weed control at 100 ppm (Laodelphax striatellus)

O=C(Nc1cc(C(=O)Nc2c(Br)cc(C(F)(C(F)(F)F)C(F)(F)F)cc2C(F)(F)F)ccc1F)c1ccccc1 [6-3348, 3-benzamide-N-(2-bromo-4-(perfluoropropan-2-yl)-6-(trifluoromethyl)phenyl)-4-fluorobenzamide]
≥ 70%: pest or weed control at 1 ppm (Spodoptera litura) | pest or weed control at 1 ppm (Plutella xylostella) | pest or weed control at 100 ppm (Laodelphax striatellus)

O=C(Nc1c(Br)cc(C(F)(C(F)(F)F)C(F)(F)F)cc1C(F)(F)F)c1ccc(F)c(NC(=O)c2cccnc2Cl)c1 [6-3384]
≥ 70%: pest or weed control at 1 ppm (Spodoptera litura) | pest or weed control at 1 ppm (Plutella xylostella) | pest or weed control at 100 ppm (Laodelphax striatellus)

O=C(Nc1cccc(C(=O)Nc2c(I)cc(C(F)(C(F)(F)F)C(F)(F)C(F)(F)F)cc2I)c1)c1cccc(F)c1 (stereo not drawn) [6-5903]
≥ 70%: pest or weed control at 1 ppm (Spodoptera litura) | pest or weed control at 1 ppm (Plutella xylostella) | pest or weed control at 100 ppm (Laodelphax striatellus)

O=C(Nc1cccc(C(=O)Nc2c(I)cc(C(F)(C(F)(F)F)C(F)(F)C(F)(F)F)cc2I)c1)c1ccc(F)cc1 (stereo not drawn) [6-5904]
≥ 70%: pest or weed control at 1 ppm (Spodoptera litura) | pest or weed control at 1 ppm (Plutella xylostella) | pest or weed control at 100 ppm (Laodelphax striatellus)

O=C(Nc1cccc(C(=O)Nc2c(Br)cc(C(F)(C(F)(F)F)C(F)(F)C(F)(F)F)cc2Br)c1)c1ccc(F)cc1 (stereo not drawn) [6-5906]
≥ 70%: pest or weed control at 1 ppm (Spodoptera litura) | pest or weed control at 1 ppm (Plutella xylostella) | pest or weed control at 100 ppm (Laodelphax striatellus)

O=C(Nc1cccc(C(=O)Nc2c(Br)cc(C(F)(C(F)(F)F)C(F)(F)F)cc2OC(F)(F)F)c1F)c1ccccc1 [6-5907]
≥ 70%: pest or weed control at 1 ppm (Spodoptera litura) | pest or weed control at 1 ppm (Plutella xylostella) | pest or weed control at 100 ppm (Laodelphax striatellus)

O=C(Nc1cccc(C(=O)Nc2c(Br)cc(C(F)(C(F)(F)F)C(F)(F)F)cc2OC(F)(F)F)c1F)c1cccnc1Cl [6-5908, N-(3-(2-bromo-4-(perfluoropropan-2-yl)-6-(trifluoromethoxy)phenylcarbamoyl)-2-fluorophenyl)-2-chloronicotinamide]
≥ 70%: pest or weed control at 1 ppm (Spodoptera litura) | pest or weed control at 1 ppm (Plutella xylostella) | pest or weed control at 100 ppm (Laodelphax striatellus)

N#Cc1ccc(C(=O)Nc2cccc(C(=O)Nc3c(Br)cc(C(F)(C(F)(F)F)C(F)(F)F)cc3OC(F)(F)F)c2F)cc1 [6-5909]
≥ 70%: pest or weed control at 1 ppm (Spodoptera litura) | pest or weed control at 1 ppm (Plutella xylostella) | pest or weed control at 100 ppm (Laodelphax striatellus)

O=C(Nc1cccc(C(=O)Nc2c(Br)cc(C(F)(C(F)(F)F)C(F)(F)F)cc2C(F)(F)C(F)(F)F)c1F)c1ccccc1 [6-5910]
≥ 70%: pest or weed control at 1 ppm (Spodoptera litura) | pest or weed control at 1 ppm (Plutella xylostella) | pest or weed control at 100 ppm (Laodelphax striatellus)

N#Cc1ccc(C(=O)Nc2cccc(C(=O)Nc3c(Br)cc(C(F)(C(F)(F)F)C(F)(F)F)cc3C(F)(F)C(F)(F)F)c2F)cc1 [6-5911, N-(2-bromo-6-(perfluoroethyl)-4-(perfluoropropan-2-yl)phenyl)-3-(4-cyanobenzamide)-2-fluorobenzamide]
≥ 70%: pest or weed control at 1 ppm (Spodoptera litura) | pest or weed control at 1 ppm (Plutella xylostella) | pest or weed control at 100 ppm (Laodelphax striatellus)

O=C(Nc1c(Br)cc(C(F)(F)C(F)(F)F)cc1C(F)(F)F)c1cccc(NC(=O)c2cccnc2Cl)c1 [6-5914]
≥ 70%: pest or weed control at 10 ppm (Spodoptera litura) | pest or weed control at 10 ppm (Plutella xylostella) | pest or weed control at 100 ppm (Laodelphax striatellus)

CN(C(=O)c1c(F)cccc1F)c1cccc(C(=O)Nc2c(Br)cc(C(F)(C(F)(F)F)C(F)(F)C(F)(F)F)cc2Br)c1 (stereo not drawn) [7-47]
≥ 70%: pest or weed control at 1 ppm (Spodoptera litura) | pest or weed control at 1 ppm (Plutella xylostella) | pest or weed control at 100 ppm (Laodelphax striatellus)

CN(C(=O)c1cccc([N+](=O)[O-])c1)c1cccc(C(=O)Nc2c(Br)cc(C(F)(C(F)(F)F)C(F)(F)F)cc2C(F)(F)F)c1 [7-285]
≥ 70%: pest or weed control at 1 ppm (Spodoptera litura) | pest or weed control at 10 ppm (Plutella xylostella) | pest or weed control at 100 ppm (Laodelphax striatellus)

CN(C(=O)c1ccc([N+](=O)[O-])cc1)c1cccc(C(=O)Nc2c(Br)cc(C(F)(C(F)(F)F)C(F)(F)F)cc2C(F)(F)F)c1 [7-286]
≥ 70%: pest or weed control at 1 ppm (Spodoptera litura) | pest or weed control at 1 ppm (Plutella xylostella) | pest or weed control at 100 ppm (Laodelphax striatellus)

CN(C(=O)c1cccc(C#N)c1)c1cccc(C(=O)Nc2c(Br)cc(C(F)(C(F)(F)F)C(F)(F)F)cc2C(F)(F)F)c1 [7-288]
≥ 70%: pest or weed control at 1 ppm (Spodoptera litura) | pest or weed control at 1 ppm (Plutella xylostella) | pest or weed control at 100 ppm (Laodelphax striatellus)

CN(C(=O)c1ccc(C#N)cc1)c1cccc(C(=O)Nc2c(Br)cc(C(F)(C(F)(F)F)C(F)(F)F)cc2C(F)(F)F)c1 [7-289]
≥ 70%: pest or weed control at 1 ppm (Spodoptera litura) | pest or weed control at 1 ppm (Plutella xylostella) | pest or weed control at 100 ppm (Laodelphax striatellus)

CN(C(=O)c1ccc(C#N)cc1Cl)c1cccc(C(=O)Nc2c(Br)cc(C(F)(C(F)(F)F)C(F)(F)F)cc2C(F)(F)F)c1 [7-301]
≥ 70%: pest or weed control at 1 ppm (Spodoptera litura) | pest or weed control at 1 ppm (Plutella xylostella) | pest or weed control at 100 ppm (Laodelphax striatellus)

CN(C(=O)c1cccnc1F)c1cccc(C(=O)Nc2c(Br)cc(C(F)(C(F)(F)F)C(F)(F)F)cc2C(F)(F)F)c1 [7-303]
≥ 70%: pest or weed control at 1 ppm (Spodoptera litura) | pest or weed control at 1 ppm (Plutella xylostella) | pest or weed control at 100 ppm (Laodelphax striatellus)

CN(C(=O)c1cccnc1Cl)c1cccc(C(=O)Nc2c(Br)cc(C(F)(C(F)(F)F)C(F)(F)F)cc2C(F)(F)F)c1 [7-304]
≥ 70%: pest or weed control at 1 ppm (Spodoptera litura) | pest or weed control at 1 ppm (Plutella xylostella) | pest or weed control at 100 ppm (Laodelphax striatellus)

CN(C(=O)c1ccc(Cl)nc1)c1cccc(C(=O)Nc2c(Br)cc(C(F)(C(F)(F)F)C(F)(F)F)cc2C(F)(F)F)c1 [7-311]
≥ 70%: pest or weed control at 1 ppm (Spodoptera litura) | pest or weed control at 1 ppm (Plutella xylostella) | pest or weed control at 100 ppm (Laodelphax striatellus)

CN(C(=O)c1ccc(C#N)nc1)c1cccc(C(=O)Nc2c(Br)cc(C(F)(C(F)(F)F)C(F)(F)F)cc2C(F)(F)F)c1 [7-316]
≥ 70%: pest or weed control at 10 ppm (Spodoptera litura) | pest or weed control at 10 ppm (Plutella xylostella) | pest or weed control at 100 ppm (Laodelphax striatellus)

CN(C(=O)c1cccc(F)c1)c1cccc(C(=O)Nc2c(I)cc(C(F)(C(F)(F)F)C(F)(F)F)cc2C(F)(F)F)c1 [7-426]
≥ 70%: pest or weed control at 1 ppm (Spodoptera litura) | pest or weed control at 1 ppm (Plutella xylostella) | pest or weed control at 100 ppm (Laodelphax striatellus)

CN(C(=O)c1ccc(F)cc1)c1cccc(C(=O)Nc2c(I)cc(C(F)(C(F)(F)F)C(F)(F)F)cc2C(F)(F)F)c1 [7-427]
≥ 70%: pest or weed control at 1 ppm (Spodoptera litura) | pest or weed control at 1 ppm (Plutella xylostella) | pest or weed control at 100 ppm (Laodelphax striatellus)
